Each structure is given as a SMILES string.

For orientation: IC50 means the point on the concentration scale where inhibition reaches its midpoint.

For this assay, the target named is T1, Avi-tagged FL MALT-1 (Homo sapiens, UniProt Q9UDY8).
T1 construct: Avi-tagged FL MALT-1 (Pharmaron, stored at −70° C.); Avi-tag; purchased Pharmaron
T1 sequence (Q9UDY8 1-824): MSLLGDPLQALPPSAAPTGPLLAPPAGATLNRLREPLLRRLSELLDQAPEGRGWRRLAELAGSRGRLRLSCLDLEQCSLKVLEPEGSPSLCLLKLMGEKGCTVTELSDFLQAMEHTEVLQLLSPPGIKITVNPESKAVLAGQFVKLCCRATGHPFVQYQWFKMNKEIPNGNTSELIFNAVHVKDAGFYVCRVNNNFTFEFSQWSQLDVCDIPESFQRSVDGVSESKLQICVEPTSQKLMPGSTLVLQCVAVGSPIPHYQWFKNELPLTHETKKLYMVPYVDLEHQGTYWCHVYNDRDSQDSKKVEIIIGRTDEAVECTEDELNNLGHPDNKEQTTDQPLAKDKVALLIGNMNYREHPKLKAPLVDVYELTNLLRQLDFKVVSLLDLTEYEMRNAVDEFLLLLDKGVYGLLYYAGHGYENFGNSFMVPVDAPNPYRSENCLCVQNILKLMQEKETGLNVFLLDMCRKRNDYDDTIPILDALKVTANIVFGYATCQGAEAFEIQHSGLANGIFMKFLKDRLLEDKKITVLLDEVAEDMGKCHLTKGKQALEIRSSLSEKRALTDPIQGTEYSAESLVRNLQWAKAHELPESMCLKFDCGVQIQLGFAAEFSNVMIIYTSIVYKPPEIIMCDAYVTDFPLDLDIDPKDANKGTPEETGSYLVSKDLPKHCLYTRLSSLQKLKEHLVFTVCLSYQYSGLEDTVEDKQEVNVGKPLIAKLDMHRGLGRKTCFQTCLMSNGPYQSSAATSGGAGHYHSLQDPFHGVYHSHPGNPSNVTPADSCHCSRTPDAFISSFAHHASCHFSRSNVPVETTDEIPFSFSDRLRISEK
Briefly: MALT-1 Fluorogenic Peptide Cleavage Assay (MALT1 inhibition assay). The format is biochemical. Particulars: Ac-LRSR-AMC peptide substrate; 30 min pre-incubation, 90 min reaction at room temperature; fluorescence. The procedure, abridged:
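Full-length Avi-tagged enzyme preincubated 30 min at room temperature with compound (2% DMSO final) in HEPES pH 6.89 buffer with sodium citrate, TCEP, EDTA and CHAPS. Ac-LRSR-AMC substrate added at Km or 10×Km (working stocks 50 or […] μM); fluorescence (ex 342/em 441 nm) after 90 min; IC50 from sigmoidal fit.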

The compound `O=C(Nc1ccnc(C(F)(F)F)c1)c1snc(-c2cccc3scnc23)c1C1CC1` [I-159, 3-(1,3-benzothiazol-4-yl)-4-cyclopropyl-N-[2-(trifluoromethyl)pyridin-4-yl]-1,2-thiazole-5-carboxamide] showed a half-maximal inhibitory concentration (IC50) of at most 400 nM. With `Cc1ccccc1-c1nsc(C(=O)Nc2ccnc(C(F)(F)F)c2)c1C1CC1` [I-160, 4-cyclopropyl-3-(2-methylphenyl)-N-[2-(trifluoromethyl)pyridin-4-yl]-1,2-thiazole-5-carboxamide], the IC50 was at most 400 nM. In the case of `COc1ccccc1-c1nsc(C(=O)Nc2ccnc(C(F)(F)F)c2)c1C1CC1` [I-161, 4-cyclopropyl-3-(2-methoxyphenyl)-N-[2-(trifluoromethyl)pyridin-4-yl]-1,2-thiazole-5-carboxamide], the IC50 is at most 400 nM. `O=C(Nc1ccnc(C(F)(F)F)c1)c1snc(-c2cccc3ocnc23)c1C1CC1` [I-162, 3-(1,3-benzoxazol-4-yl)-4-cyclopropyl-N-[2-(trifluoromethyl)pyridin-4-yl]-1,2-thiazole-5-carboxamide] showed an IC50 of at most 400 nM.

`COc1ncccc1-c1nsc(C(=O)Nc2ccnc(C(F)(F)F)c2)c1C1CC1` [I-163, 4-cyclopropyl-3-(2-methoxypyridin-3-yl)-N-(2-(trifluoromethyl)pyridin-4-yl)isothiazole-5-carboxamide] showed an IC50 of at most 400 nM. In the case of `O=C(Nc1ccnc(C(F)(F)F)c1)c1snc(-c2ccccc2C(F)(F)F)c1C1CC1` [I-164, 4-cyclopropyl-3-(2-(trifluoromethyl)phenyl)-N-(2-(trifluoromethyl)pyridin-4-yl)isothiazole-5-carboxamide], the IC50 was at most 400 nM. In turn, `O=C(Nc1ccnc(C(F)(F)F)c1)c1snc(-c2cccnc2)c1C1CC1` [I-165, 4-cyclopropyl-3-(pyridin-3-yl)-N-(2-(trifluoromethyl)pyridin-4-yl)isothiazole-5-carboxamide] returned an IC50 of at most 400 nM. As to `O=C(Nc1ccnc(C(F)(F)F)c1)c1snc(-c2ccc3[nH]ncc3c2)c1C1CC1` [I-166, 4-cyclopropyl-3-(1H-indazol-5-yl)-N-(2-(trifluoromethyl)pyridin-4-yl)isothiazole-5-carboxamide], the IC50 is at most 400 nM.

`Cc1cncc(-c2nsc(C(=O)Nc3ccnc(C(F)(F)F)c3)c2C2CC2)c1` [I-167, 4-cyclopropyl-3-(5-methylpyridin-3-yl)-N-(2-(trifluoromethyl)pyridin-4-yl)isothiazole-5-carboxamide]: the IC50 lay in the range of 400 to 1000 nM. For the compound `Cn1ncc2cc(-c3nsc(C(=O)Nc4ccnc(C(F)(F)F)c4)c3C3CC3)ccc21` [I-168, 4-cyclopropyl-3-(1-methyl-1H-indazol-5-yl)-N-(2-(trifluoromethyl)pyridin-4-yl)isothiazole-5-carboxamide], the IC50 was in the range of 400 to 1000 nM. `O=C(Nc1ccnc(C(F)(F)F)c1)c1snc(-c2ccc3cn[nH]c3c2)c1C1CC1` [I-169, 4-cyclopropyl-3-(1H-indazol-6-yl)-N-(2-(trifluoromethyl)pyridin-4-yl)isothiazole-5-carboxamide] came in with an IC50 of at most 400 nM. `COc1ccncc1-c1nsc(C(=O)Nc2ccnc(C(F)(F)F)c2)c1C1CC1` [I-170, 4-cyclopropyl-3-(4-methoxypyridin-3-yl)-N-(2-(trifluoromethyl)pyridin-4-yl)isothiazole-5-carboxamide] yielded an IC50 of at most 400 nM. Compound `Cc1ncccc1-c1nsc(C(=O)Nc2ccnc(C(F)(F)F)c2)c1C1CC1` [I-171, 4-cyclopropyl-3-(2-methylpyridin-3-yl)-N-[2-(trifluoromethyl)pyridin-4-yl]-1,2-thiazole-5-carboxamide] came in with a half-inhibitory concentration (IC50) of at most 400 nM. `O=C(Nc1ccnc(C(F)(F)F)c1)c1snc(-c2ccc(F)cc2)c1C1CC1` [I-172, 4-cyclopropyl-3-(4-fluorophenyl)-N-[2-(trifluoromethyl)pyridin-4-yl]-1,2-thiazole-5-carboxamide] displayed an IC50 of at most 400 nM. As to `Cc1ccncc1-c1nsc(C(=O)Nc2ccnc(C(F)(F)F)c2)c1C1CC1` [I-173, 4-cyclopropyl-3-(4-methylpyridin-3-yl)-N-(2-(trifluoromethyl)pyridin-4-yl)isothiazole-5-carboxamide], the concentration for half-maximal inhibition (IC50) was at most 400 nM. In the case of `O=C(Nc1ccnc(C(F)(F)F)c1)c1snc(-c2cccc(C(F)F)c2)c1C1CC1` [I-174, 4-cyclopropyl-3-[3-(difluoromethyl)phenyl]-N-[2-(trifluoromethyl)pyridin-4-yl]-1,2-thiazole-5-carboxamide], the IC50 is at most 400 nM. The compound `Cn1ccc2c(-c3nsc(C(=O)Nc4ccnc(C(F)(F)F)c4)c3C3CC3)ccnc21` [I-175, 4-cyclopropyl-3-{1-methylpyrrolo[2,3-b]pyridin-4-yl}-N-[2-(trifluoromethyl)pyridin-4-yl]-1,2-thiazole-5-carboxamide] yielded an IC50 of at most 400 nM. Regarding `CNC(=O)c1ccc(-c2nsc(C(=O)Nc3ccnc(C(F)(F)F)c3)c2C2CC2)cc1` [I-176, 4-cyclopropyl-3-[4-(methylcarbamoyl)phenyl]-N-[2-(trifluoromethyl)pyridin-4-yl]-1,2-thiazole-5-carboxamide], the half-inhibitory concentration (IC50) lay in the range of 1000 to 2500 nM. On to `O=C(Nc1ccnc(C(F)(F)F)c1)c1snc(-c2cncc3ccccc23)c1C1CC1` [I-177, 4-cyclopropyl-3-(isoquinolin-4-yl)-N-(2-(trifluoromethyl)pyridin-4-yl)isothiazole-5-carboxamide], for which the IC50 was at most 400 nM. As to `Cc1cccc(-c2nsc(C(=O)Nc3ccnc(C(F)(F)F)c3)c2C2CC2)c1` [I-178, 4-cyclopropyl-3-(3-methylphenyl)-N-[2-(trifluoromethyl)pyridin-4-yl]-1,2-thiazole-5-carboxamide], the IC50 was at most 400 nM.

For the compound `N#Cc1cc(NC(=O)c2snc(-c3cccc4ncccc34)c2C2CC2)ccc1C(=O)N1CC(O)C1` [I-180, N-(3-cyano-4-(3-hydroxyazetidine-1-carbonyl)phenyl)-4-cyclopropyl-3-(quinolin-5-yl)isothiazole-5-carboxamide], the IC50 was at most 400 nM. Regarding `Cn1cc(-c2nsc(C(=O)Nc3ccnc(C(F)(F)F)c3)c2C2CC2)cn1` [I-181, 4-cyclopropyl-3-(1-methyl-1H-pyrazol-4-yl)-N-(2-(trifluoromethyl)pyridin-4-yl)isothiazole-5-carboxamide], the 50% inhibitory concentration (IC50) is 1000 to 2500 nM. For the compound `O=C(Nc1ccnc(C(F)(F)F)c1)c1snc(-c2cccc3[nH]ncc23)c1C1CC1` [I-182, 4-cyclopropyl-3-(1H-indazol-4-yl)-N-(2-(trifluoromethyl)pyridin-4-yl)isothiazole-5-carboxamide], the IC50 is at most 400 nM. The compound `Cc1c(-c2nsc(C(=O)Nc3ccnc(C(F)(F)F)c3)c2C2CC2)cnn1C` [I-183, 4-cyclopropyl-3-(1,5-dimethyl-1H-pyrazol-4-yl)-N-(2-(trifluoromethyl)pyridin-4-yl)isothiazole-5-carboxamide] gave a 50% inhibitory concentration (IC50) of at most 400 nM. With `O=C(Nc1ccnc(C(F)(F)F)c1)c1snc(-c2ccncc2)c1C1CC1` [I-184, 4-cyclopropyl-3-(pyridin-4-yl)-N-(2-(trifluoromethyl)pyridin-4-yl)isothiazole-5-carboxamide], the 50% inhibitory concentration (IC50) is at most 400 nM. For the compound `O=C(Nc1ccnc(C(F)(F)F)c1)c1snc(-c2ccn3ccnc3c2)c1C1CC1` [I-185, 4-cyclopropyl-3-(imidazo[1,2-a]pyridin-7-yl)-N-(2-(trifluoromethyl)pyridin-4-yl)isothiazole-5-carboxamide], the 50% inhibitory concentration (IC50) lay within 1000 to 2500 nM. `O=C(Nc1ccnc(C(F)(F)F)c1)c1snc(-c2ccc3nccn3c2)c1C1CC1` [I-186, 4-cyclopropyl-3-{imidazo[1,2-a]pyridin-6-yl}-N-[2-(trifluoromethyl)pyridin-4-yl]-1,2-thiazole-5-carboxamide] showed a 50% inhibitory concentration (IC50) of at most 400 nM. `O=C(Nc1ccnc(C(F)(F)F)c1)c1snc(-c2c(Cl)cncc2Cl)c1C1CC1` [I-187, 4-cyclopropyl-3-(3,5-dichloropyridin-4-yl)-N-(2-(trifluoromethyl)pyridin-4-yl)isothiazole-5-carboxamide]: the IC50 was at most 400 nM. Next, `N#Cc1cc(NC(=O)c2snc(-c3cccc4c(=O)[nH]ccc34)c2C2CC2)cnc1-n1nccn1` [I-188, N-(5-cyano-6-(2H-1,2,3-triazol-2-yl)pyridin-3-yl)-4-cyclopropyl-3-(1-oxo-1,2-dihydroisoquinolin-5-yl)isothiazole-5-carboxamide]: at most 400 nM; `O=C(Nc1ccnc(C(F)(F)F)c1)c1snc(-c2cccc3c(=O)[nH]ccc23)c1C1CC1` [I-189, 4-cyclopropyl-3-(1-oxo-1,2-dihydroisoquinolin-5-yl)-N-(2-(trifluoromethyl)pyridin-4-yl)isothiazole-5-carboxamide]: at most 400 nM.

The record behind these values is patent publication US20260124222A1, “ISOTHIAZOLYLCARBOXAMIDE COMPOUNDS AND THEIR USE IN THERAPY” (HOTSPOT THERAPEUTICS, INC., priority 2022, published 2026).
